{
  "source": "patent US20230031369A1",
  "about": "“THERAPEUTIC INTERACTIONS OF LEUCOMETHYLTHIONINIUM” (WisTa Laboratories Ltd., priority 2019, published 2023)",
  "key": {"[1]": {"tested_on": "acetylcholine (ACh) levels in hippocampus", "assay": "Hippocampal ACh levels by microdialysis and HPLC, wild-type mice", "format": "in vivo", "conditions": "LMTM after prior treatment with rivastigmine", "procedure": "(§1) For measurement of acetylcholine (ACh) levels in hippocampus, animals (wild-type or L1) were treated with LMTM (5 mg/kg/day for 2 weeks) after prior treatment for 2 weeks with or without rivastigmine (0.5 mg/kg/day). Rivastigmine was administered subcutaneously with an Alzet minipump whereas LMTM was administered by oral gavage. Levels of ACh were measured in hippocampus using an implanted microdialysis probe and HPLC analysis of the extracellular fluid."}, "[2]": {"tested_on": "acetylcholine (ACh) levels in hippocampus", "assay": "Hippocampal ACh levels by microdialysis and HPLC, L1 mice", "format": "in vivo, tau transgenic L1 mice", "procedure": "as §1"}, "[3]": {"tested_on": "SNARE complex proteins (SNAP25, syntaxin and VAMP2)", "assay": "Immunohistochemistry of SNARE complex proteins, L1 mice", "format": "in vivo, tau transgenic L1 mice", "conditions": "combination of LMTM with chronic rivastigmine pretreatment", "procedure": "FIG. 3. Treatment effects of LMTM alone or following chronic pretreatment with rivastigmine in tau transgenic L1 mice on levels of (A) SNARE complex proteins (SNAP25, syntaxin and VAMP2) and (B) α-synuclein measured immunohistochemically as the mean value for hippocampus, visual cortex, diagonal band and septum. (*, p<0.05; ***, p<0.001; ****, p<0.0001).\n(§2) Wild-type and L1 mice (n=7-16 for each group) were pre-treated with rivastigmine (0.1 or 0.5 mg/kg/day) or memantine (2 or 20 mg/kg/day) or vehicle for 5 weeks by gavage. For the following 6 weeks, LMTM (5 and 15 mg/kg) or vehicle were added to this daily treatment regime, also by gavage. Animals were tested behaviourly during weeks 10 and 11 using a problem solving task in the open field water maze and then sacrificed for immunohistochemical and other tissue analyses.\n(§3) Translating doses from mice to humans requires consideration of a number of factors. […] The higher dose of 15 mg/kg/day is generally required for LMTM to be fully effective in the L1 mouse model (Melis et al., 2015a). […] Tissue sectioned for immunohistochemistry was labelled with antibody and processed using Image J to determine protein expression densitometrically. Data are presented as Z-score transformations without units."}, "[4]": {"tested_on": "mitochondrial complex IV", "assay": "Complex IV activity in brain mitochondria, wild-type mice", "format": "in vivo", "conditions": "following LMTM treatment", "procedure": "as §2"}, "[5]": {"tested_on": "mitochondrial complex IV", "assay": "Complex IV activity relative to citrate synthetase activity in brain mitochondria, L1 mice", "format": "in vivo, tau transgenic L1 mice", "procedure": "as §2"}, "[6]": {"tested_on": "wild-type mice", "assay": "Problem solving task in the open field water maze, wild-type mice", "format": "in vivo", "conditions": "LMTM", "procedure": "as §2"}, "[7]": {"tested_on": "tau transgenic L1 mice", "assay": "Problem solving task in the open field water maze, L1 mice", "format": "in vivo", "procedure": "FIG. 7. Effect of combined administration of Memantine and LMTM on problem solving deficits in female Line 1 mice, aged 5.5 months at the beginning of the study. Memantine was administered at 20 mg/kg and LMTM at 15 mg/kg. Mice were treated with vehicle or Memantine for 5 weeks prior to Memantine plus LMTM treatment for 6 weeks, with the mice being tested in the water maze task over weeks 10 and 11.\nas §2"}, "[8]": {"tested_on": "glutamate release from brain synaptosomal preparations", "assay": "Glutamate release from brain synaptosomal preparations, L1 mice", "format": "in vivo, tau transgenic L1 mice"}, "[9]": {"molecular_target": "T1, core tau unit of the PHF (Homo sapiens, UniProt P10636)", "T1 construct": "three-repeat tau fragment encompassing residues 296-390 of the 2N4R tau isoform; expressed in transfected cells; host or cells: transgenic L1 mice (NMRI strain, Thy 1 promotor), brain sections of the vertical diagonal band", "T1 sequence (P10636 613-707)": "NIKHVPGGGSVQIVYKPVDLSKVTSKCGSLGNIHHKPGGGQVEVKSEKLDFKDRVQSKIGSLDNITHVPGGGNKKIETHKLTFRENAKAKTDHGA", "assay": "Tau immunoreactivity (relative optical density) in vertical diagonal band, L1 mice", "format": "in vivo, tau transgenic L1 mice", "procedure": "FIG. 5. Treatment effects of LMTM alone or following chronic pretreatment with rivastigmine in tau transgenic L1 mice compared with vehicle-treated wild-type mice on levels of tau immunoreactivity (relative optical density) (A) and neurons immunoreactive for choline acetyltransferase (B) in vertical diagonal band. (*, p<0.05; **, p<0.01; ***, p<0.001).\nas §2, §3"}, "[10]": {"tested_on": "ACh levels in the hippocampus", "assay": "Hippocampal ACh levels with scopolamine and 100 nanomolar rivastigmine in the perfusion fluid", "format": "in vivo, wild type mice", "procedure": "Under the condition of cholinesterase inhibition used in these experiments (a very small amount of a cholinesterase inhibitor, 100 nanomolar rivastigmine, added to the perfusion fluid), ACh levels in the hippocampus rise, and when they rise strongly enough, they limit additional ACh release by activating pre-synaptic muscarinic receptors of the M2/M4 subtype (so-called negative feedback receptors).\nIn this situation, adding scopolamine (1 μM) to the perfusion fluid blocks these presynaptic receptors and, as a consequence, ACh levels rise by 3-5 fold. The fact that LMTM is not additive with rivastigmine in these experiments supports the conclusion that LMTM has a different mechanism of action from rivastigmine. In other words, although LMTM has been described as being a weak inhibitor of cholinesterases in high concentrations, the present effects seem to be unrelated to cholinesterase inhibition, because there is no additive effect with small quantities of rivastigmine."}, "[11]": {"assay": "ADAS-cog change after withdrawal of LMTM 8 mg/day following 18 months of treatment", "format": "in vivo, human", "procedure": "Following 18 months of treatment with 8 mg/day LMTM, subjects were required to have a 1 month “washout” followed by cognitive assessment of change. The group was split according to whether they has received LMTM as an add-on to existing symptomatic therapy (AChEI, Memantine, collectively abbreviated to “Achmem”) or as a monotherapy.\nThe group was further analysed in terms of subjects who had received a high Cmax exposure or a low one."}, "[12]": {"conditions": "8 mg/day dose; split at Cmax threshold of […]; from WO2020/020751; cited from earlier work"}, "[13]": {"tested_on": "electron transfer chain", "conditions": "acting as a supplementary electron carrier in the electron transfer chain; cited from earlier work"}, "[14]": {"tested_on": "pathological tau", "conditions": "in vivo (Congdon et al., 2012); cited from earlier work"}, "[15]": {"tested_on": "cholinesterase", "conditions": "reported (Pfaffendorf et al., 1997; Deiana et al., 2009); cited from earlier work"}, "[16]": {"conditions": "LMTM preceded by chronic rivastigmine"}},
  "note": "Entries after “also recorded” stand apart in the source; their conditions may differ.",
  "data": [
    {"compound": "CN(C)c1ccc2c(c1)Sc1cc(N(C)C)ccc1N2", "note": "[LMTM, Leuco-methylthioninium bis(hydromethanesulfonate)]", "values": [
      {"measurement": "reduction in basal ACh levels in hippocampus", "setting": "[1]", "value": 30, "unit": "%"},
      {"measurement": "ACh release in the hippocampus", "setting": "[2]; LMTM alone", "value": "increased; also recorded: significant increases"},
      {"measurement": "ACh release in the hippocampus", "setting": "[2]; [16]", "value": "None of these effects were seen"},
      {"measurement": "SNARE complex proteins", "setting": "[3]", "value": "levels below those seen in the absence of LMTM treatment"},
      {"measurement": "complex IV activity", "setting": "[4]", "value": "did not show any increase; also recorded: no effect"},
      {"measurement": "mitochondrial complex IV activity", "setting": "[5]; LMTM alone", "value": "increased; also recorded: significant increases; also recorded: significant enhancement; also recorded: strong effect"},
      {"measurement": "mitochondrial complex IV activity", "setting": "[5]; [16]", "value": "None of these effects were seen; also recorded: eliminated this effect"},
      {"measurement": "spatial recognition memory", "setting": "[6]", "value": "not associated with improvement"},
      {"measurement": "behavioural changes (spatial learning)", "setting": "[7]; LMTM alone", "value": "reversed deficits; also recorded: significant increases"},
      {"measurement": "behavioural changes", "setting": "[7]; [16]", "value": "None of these effects were seen"},
      {"measurement": "glutamate release from brain synaptosomal preparations", "setting": "[8]; LMTM alone", "value": "increased; also recorded: significant increases; also recorded: restoration of normal glutamate release"},
      {"measurement": "glutamate release from brain synaptosomal preparations", "setting": "[8]; [16]", "value": "None of these effects were seen"},
      {"measurement": "immunoreactivity against the core tau unit of the PHF measured by optical density", "setting": "[9]; LMTM after prior chronic treatment with rivastigmine", "value": "persist"},
      {"measurement": "immunoreactivity against the core tau unit of the PHF measured by optical density", "setting": "[9]; LMTM alone", "value": "reduced"},
      {"measurement": "ACh levels", "setting": "[10]; wild type mice, scopolamine experiments, combination of LMTM with rivastigmine", "value": "inhibitory; also recorded: not additive"},
      {"measurement": "increase in ACh levels", "setting": "[10]; wild type mice, scopolamine used to increase ACh levels, LMTM alone", "value": "less than that seen with rivastigmine alone"},
      {"measurement": "ADAS-cog change following LMTM withdrawal", "setting": "[11]; 18 month LMTM 8 mg/day as add on to symptomatic therapy (AChEI, Memantine), high exposure (Cmax) group, p-value=0.0021", "value": "−0.98"},
      {"measurement": "ADAS-cog change following LMTM withdrawal", "setting": "[11]; 18 month LMTM 8 mg/day as add on to symptomatic therapy (AChEI, Memantine), lower exposure group, p-value=0.0855", "value": 0.51},
      {"measurement": "ADAS-cog change following LMTM withdrawal", "setting": "[11]; 18 month LMTM 8 mg/day monotherapy, high exposure (Cmax) group, p-value=0.1651", "value": 0.73},
      {"measurement": "ADAS-cog change following LMTM withdrawal", "setting": "[11]; 18 month LMTM 8 mg/day monotherapy, lower exposure group, p-value=0.0011", "value": 2.29},
      {"measurement": "treatment difference in high and low Cmax patients", "setting": "[12]", "value": "−3.4", "unit": "ADAS-cog units"}
    ]},
    {"compound": "CN(C)c1ccc2nc3ccc(=[N+](C)C)cc-3sc2c1", "note": "[MT, Methylthioninium]", "values": [
      {"measurement": "concentrations at which mitochondrial activity is enhanced", "setting": "[13]", "value": "10 to 100", "unit": "nM"},
      {"measurement": "concentration range increasing clearance of pathological tau via enhancement of autophagy", "setting": "[14]", "value": "10-20 nM"},
      {"measurement": "cholinesterase inhibition", "setting": "[15]", "value": "weak cholinesterase inhibitor"}
    ]},
    {"compound": "CN1[C@@H]2C[C@@H](OC(=O)[C@H](CO)c3ccccc3)C[C@H]1[C@@H]1O[C@@H]12", "note": "[scopolamine, reference compound]", "values": [
      {"measurement": "rise in ACh levels", "setting": "[10]; scopolamine 1 μM added to the perfusion fluid containing 100 nanomolar rivastigmine", "value": "3-5 fold"}
    ]}
  ]
}
